Experimental data from a melting point compilation (Tetko et al.; mined from patent text by program, amines drawn as free bases though some values may be those of a salt).

Row | melting point | Structure (SMILES)
1 | 114 to 116 °C | C=C(C)C(=O)OCCCOc1cc(-n2nc3ccc(OC)cc3n2)c(O)c(C(C)(C)C)c1
2 | 119 to 120 °C | CCCCCS(=O)(=O)NC(=O)/C=C/c1ccc(OCCOC)cc1Oc1ncc(Cl)cc1Cl
3 | > 250 °C | COc1ccc(C(=O)Nc2ccncc2)c2c1[nH]c1ccccc12
4 | 193 to 198 °C | O=C(Cn1nc2ccccc2n1)Nc1ccc(-n2nc(C(F)(F)F)cc2C2CC2)nc1
5 | 132 to 133 °C | CCCN(Cc1cccc(-c2noc(C)n2)c1)C(=O)Cc1ccc(-c2ccccc2S(=O)(=O)NC(C)(C)C)cc1
6 | 96 to 98 °C | COC(=O)C(=O)c1ccc(OCCOc2ccc(C(F)(F)F)cc2)cc1
7 | 87.2 °C | O=S(=O)(Cl)c1cc2c(Br)cccc2o1
8 | 125 to 127 °C | COc1ccc(Cc2cc(C3CCCN(C(=O)c4ccc5c(c4)OCO5)C3)nc(N)n2)cc1 (centres undefined)
9 | 123 to 125 °C | CC(C)CCCOc1c(-c2ccc(S(C)(=O)=O)cc2)cnn(-c2ccc(F)cc2)c1=O
10 | 101 to 102 °C | CCN(c1nc(C)cc(-c2ccccc2C(F)(F)F)n1)c1ccc(C(C)C)cc1Br
11 | 35 to 38 °C | CC(=O)Oc1ccc(Cl)cc1C(=O)Cl
12 | 108 °C | CCOC(=O)c1cc2cc(F)c(F)cc2nc1Cl
13 | 211 to 212 °C | CC1(C)OC(=O)Nc2ccc(-c3ccc(F)c(Cl)c3)cc21
14 | 165 to 166 °C | Cc1c(C)c2c(c(C)c1NC(=O)C(O)C(C)(C)C)C(c1ccc(C(C)C)cc1)CO2 (centres undefined)
15 | 169 to 171 °C | Cc1cc(NNC(=O)OC(C)(C)C)nnc1-c1ccc(C#N)cc1
16 | 300 to 303 °C | CCc1ccc2c(c1)C(=O)c1ccc(C(=O)O)cc1S2(=O)=O
17 | 88 to 91 °C | O=C1c2ccccc2C(=O)N1C(CCCBr)c1ccccc1 (centres undefined)
18 | 130 °C | CCOC(=O)[C@H](O)[C@@H](NC(=O)OC(C)(C)C)c1ccc(C)cc1
19 | 177 to 180 °C | CN1CCN(C2=Nc3cc(C(F)(F)F)ccc3N3CCc4cccc2c43)CC1
20 | 63 to 65 °C | N#Cc1ccc(OC[C@H](O)CO)cc1
21 | 98 to 99 °C | CC(C)(C)OC(=O)N1CC(O)C(NS(=O)(=O)c2ccc(Oc3ccccc3)cc2)C1 (centres undefined)
22 | 152 to 153 °C | c1cncc(Cn2c(-c3ccc4c(c3)OCO4)nc3ccccc32)c1

Row | melting point | Structure (SMILES)
23 | 111 to 113 °C | CCOC(=O)c1ccc2c(S)cccn2c1=O
24 | 155 to 157 °C | O=C(c1ccc(-n2ccnc2-c2ccccc2)cc1)C1CC1
25 | 58 to 60 °C | COc1ccc2sc(=Nc3ccccc3)sc2c1
26 | 132 °C | OCc1nn(-c2ccccc2Cl)cc1-c1ccccc1
27 | 208 to 210 °C | CN(C)CCCN=C1CC(c2ccc(Cl)c(Cl)c2)Cc2c1c(=O)c1cc(Cl)ccc1n2O (centres undefined)
28 | 136 to 137 °C | COC(=O)c1cc(C(=O)N2CCCOCC2)c2cc(Cc3ccc(F)cc3)cnc2c1O
29 | 198 to 199 °C | CC(=O)NC(C)(C(=O)NS(=O)(=O)c1ccc(C)cc1)C(C)C (centres undefined)
30 | 148 to 151 °C | COC(=O)c1ccc(NC(C)=O)cc1O
31 | 291 to 293 °C | CN1CC(=O)N2[C@H](c3ccc4occc4c3)c3[nH]c4ccccc4c3C[C@@H]2C1=O
32 | 189 to 190 °C | CN(C(C(=O)NO)C(C)(C)CN1C(=O)c2ccccc2C1=O)S(=O)(=O)c1ccc(Oc2ccccc2)cc1 (centres undefined)
33 | 168 to 169 °C | CC(=O)Oc1cn(C(C)=O)c2ccc(F)c(Cl)c12
34 | 125 to 137 °C | Cc1cccc(C)c1OCC(C)NCC(O)c1cc(C(N)=O)cs1 (centres undefined)
35 | 183 to 185 °C | CCCCc1nc(=O)c2cc(C(O)c3ccco3)ccc2[nH]1 (centres undefined)
36 | 80 to 82 °C | CCCCCN1C(=O)C(=O)c2c(OC)cccc21
37 | 241 to 242 °C | CC1(C)CCC(C)(C)c2cc(C(N)COc3ccc(C(=O)O)c(O)c3)ccc21 (centres undefined)
38 | 126 to 128 °C | Cc1ccccc1-c1ccc(C(=O)N2Cc3ccc(C(=O)NCc4ccccc4C(F)(F)F)n3Cc3ccccc32)cc1C
39 | 125 °C | CCCN(CCc1c[nH]c2ccc(F)cc12)C1COc2c(F)ccc(C(N)=O)c2C1 (centres undefined)
40 | 177 to 178 °C | C=CC1CN(S(=O)(=O)c2ccc(C)cc2)CCN1S(=O)(=O)c1ccc(C)cc1 (centres undefined)
41 | 55 to 56 °C | CSc1nc(=O)n(-c2ccc(Cl)c(C(=O)OC(C)C)c2)c(=O)n1C#N
42 | 130 to 131 °C | Cc1cccc(Cn2ncc3c(N4CCN(C(=O)OC(C)(C)C)CC4)ncnc32)c1
43 | 153 to 155 °C | Cn1cc(-c2ccc(Cl)cc2)c(=O)c(-c2cccc(C(F)(F)F)c2)c1
44 | 218 to 220 °C | O=C(c1ccc(F)cc1)c1ccc(C(=O)c2ccc(F)cc2)cc1

The next lines start with the compound.

Row | Structure (SMILES) | melting point
45 | COc1ccc(N2CCOCC2)c2sc(-c3nc4ccccc4n3C)nc12 | 283 to 285 °C
46 | COc1cc2c3c(c1O)-c1ccc(Cl)cc1CC3N(C)CC2 (centres undefined) | 155 to 157 °C
47 | CC1(C)CC(=O)C(c2cccc(Cl)c2)C(=O)C1 | 155 to 158 °C
48 | CCc1cc(CC)c(-c2c(O)c(C)nn(C)c2=O)c(CC)c1I | 217 to 219 °C
49 | CC(=O)n1nc(CBr)c(Oc2cc(Cl)cc(Cl)c2)c1C | 111 to 113 °C
50 | C[C@H]1CCCC(C)(C)[C@@H]1[C@H](O)c1ccc(C#N)c(Cl)c1 | 116 to 118 °C
51 | CC(=O)c1c(N2CCCC2)nn2ccccc12 | 59.5 to 60 °C
52 | CCCC(=O)c1ccc2[nH]cc3c2c1CC(N(CCC)CCC)C3 (centres undefined) | 151 to 153 °C
53 | N=C(N)Nc1ncc(CO)s1 | 168 to 170 °C
54 | NC(CC1CCCCC1)C(O)C(O)C1CC1 (centres undefined) | 141 to 142 °C
55 | Cc1cc(Br)cnc1NCCCNC1=NS(=O)N=C1N (centres undefined) | 204 to 205 °C
56 | CCCC1=C(C#N)C(c2cccc(C)c2[N+](=O)[O-])c2c[nH]nc2N1 (centres undefined) | 250 °C
57 | Cc1cc2nc(Cl)nc(Cl)c2s1 | 152 to 153 °C
58 | CCN1CCCC1CNC(=O)c1c(O)c(OC)c2occc2c1OC (centres undefined) | 86 °C
59 | CCc1cc(C#N)cc(C)c1CC(=O)OC | 65 to 72 °C
60 | C#CCN(C)C(=O)N1CC(Oc2cccc(C(F)(F)F)c2)C1 | 71 to 73 °C
61 | COc1cc(-c2ncnc(C(F)F)c2Cl)c(F)cc1Cl | 118 to 119 °C
62 | COCCOCCOCc1c(Br)c(Br)c(Br)c(Br)c1Br | 83 °C
63 | COc1nc2cc(Cl)cc(C#CCO)c2nc1OC | 137 to 140 °C
64 | Cc1ccnc2[nH]c(C3CC3)nc12 | 203 to 204 °C
65 | O=C(O)CNC(=O)CN1CCCC1=O | 149 to 150 °C
66 | CCn1c(=O)c2[nH]c(/C=C/c3ccc(OC)c(C)c3OC)nc2n(CC)c1=O | > 275 °C
67 | CC(C)(C)OC(=O)N=C(NCCCCNC(=O)[C@H](Cc1ccccc1)NC(=O)CCCC(=O)O)NC(=O)OC(C)(C)C | 86 °C
68 | COc1cc(C)c(C(O)c2c(C(F)(F)F)cnc(Cl)c2Cl)c(OC)c1OC (centres undefined) | 95 to 98 °C
69 | Nc1ncc(S(=O)c2cccnc2)s1 (centres undefined) | 178 to 179 °C
70 | CCCn1c(=O)c2c(nc(C=Cc3cc(C)c(C)cc3S(=O)(=O)O)n2C)n(CCC)c1=O | > 280 °C
71 | CCOC(=O)c1sc(SC)c2c1CCC(Br)C2=O (centres undefined) | 147 to 148 °C
72 | O=C1C2=C(CCCC2)C(=O)N1c1cc(O)c(Cl)cc1Cl | 155 to 157 °C
73 | CCOC(=O)c1ncn2c1CN(C)C(=O)c1c(C#N)cccc1-2 | 200 to 201 °C
74 | CON=C(C(=O)O)c1cccs1 | 106 °C
